According to patent US20250032460A1, “METHODS OF TREATING NEUROLOGICAL DISORDERS” (MapLight Therapeutics, Inc., priority 2021, published 2025):
Entries after “also recorded” stand apart in the source; their conditions may differ.

Assays:
[1] = system: Compound 1 induced salivation; assay: Fesoterodine dose-response antagonistic effect on Compound 1 induced salivation in anaesthetized rats; format: in vivo, Sprague Dawley rats
Protocol: (§1) An in vivo primary pharmacology study evaluating the fesoterodine fumarate dose-response antagonistic effect on Compound 1 induced salivation in anaesthetized male Sprague Dawley rats was conducted. […] Intravenous fesoterodine doses were administered at […]. Fesoterodine was dosed 10 minutes prior to dosage of Compound 1. All animals were normal with no observed abnormality detected in clinical signs or behavior. Salivation was measured by using oral dry swab in anesthetized rats with the calculated difference between the dry swab weight and the wet swab weight indicating the weight of saliva produced. Samples were collected post-dosing for one hour at 10-minute intervals.

in vivo = conditions: cynomolgus monkey, po
Protocol: The following example characterized the pharmacokinetics (PK) of Compound 1 in Cynomolgus Monkey following single oral (PO) Compound 1 dose administration. The compound was administered via oral gavage at 0.3 mg/kg and 1 mg/kg, formulated as solution in saline. After dosing, plasma was collected to characterize the PK profiles of Compound 1.

[2] = Plasma concentrations during 7-day oral dosing in beagle dogs; format: in vivo; conditions: male, beagle, dog, in vivo, po, 1.5 mg/kg/day
[3] = Plasma pharmacokinetics after single-dose intravenous administration in rats; format: in vivo, Sprague Dawley rats; conditions: rat, in vivo, iv, 1.5 mg/kg
Protocol: The plasma concentration-time profile was evaluated for fesoterodine active metabolite desfesoterodine and Compound 1 in male Sprague Dawley rats following single-dose intravenous administration of fesoterodine (0.25 mg/kg) and Compound 1 (0.5 mg/kg and 1.5 mg/kg) alone and single-dose co-administration. Plasma exposures of desfesoterodine were similar following administration of fesoterodine alone and in combination with Compound 1.

[4] = Post-procedure plasma exposure (salivation study); format: in vivo, Sprague Dawley rats; conditions: male, Sprague Dawley, rat, in vivo, 1.5 mg/kg, Plasma Concentration 1-Hour Post-procedure (mean value), Compound 1
Protocol: as §1
At the end of the study period, plasma samples were collected to measure exposure of Compound 1, fesoterodine fumarate, and fesoterodine active metabolite 5-hydroxymethyl tolterodine (5-HMT), also referred to as desfesoterodine, is summarized in Table 2.

[5] = system: Amphetamine-Induced Hyperlocomotion; assay: Compound 1 effect on amphetamine-induced hyperlocomotion (open field); format: in vivo, mice; conditions: for average (mean) centimeters traveled over 30 minutes: open field, vehicle cohort 7500 cm
Protocol: The hyperdopaminergic state underlying LID was modeled in naïve male wild-type c57/B16 mice by administration of d-amphetamine, a drug which rapidly elevates synaptic dopamine levels.
A single dose of 3 mg/kg of intraperitoneal (IP) d-amphetamine was administered to 32 male wild-type c57/B16 mice at approximately 8-weeks of age. Subsequently, the animals were subdivided into 3 groups and co-administered either a single dose of intraperitoneal vehicle only, Compound 1 at 0.3 mg/kg, or Compound 1 at 1 mg/kg. The locomotor behavior of the animals in an open field chamber (44 cm×44 cm×20 cm dimension) was monitored using a video tracking system (Noldus EthoVision v15). Over 30 minutes, the average (mean) centimeters traveled (+standard deviation) identified were: • 7500 cm (±314.9) in vehicle cohort • 5141 cm (±805.6) in the Compound 1 0.3 mg/kg cohort ([…] one-way ANOVA followed by Tukey's multiple comparison) • 2008 cm (±406.2) in the Compound 1 1.0 mg/kg cohort (p <0.001)

salivation = assay: Single ascending dose study: salivation (pharmacodynamics); format: in vivo, healthy adult volunteers; conditions: Group 1, 1-40 mg Compound 1 (FIG. 1)
Protocol: (§2) MTD was established at the dose which produced mild to moderate cholinergic adverse effects. Cholinergic effects were monitored for each dose, including pupillometry and salivation.
(§3) Group 2 evaluated tolerability of Compound 1 at Group 1 MTD with or without fesoterodine fumarate co-administration. Subjects received 8 mg of fesoterodine fumarate tablet or matched placebo tablet 4 hours prior to administration of 40 mg of Compound 1.

[6] = Clinical observations during 7-day oral dosing in beagle dogs; conditions: Group 1: Compound 1 1.5 mg/kg/day PO, individual dog, 1.5 mg/kg/day
[7] = Single ascending dose study with or without fesoterodine fumarate: safety and tolerability; format: in vivo, healthy adult volunteers
Protocol: Compound 1 was administered in a single ascending dose (SAD) study conducted in approximately 54 healthy adult volunteers to investigate Compound 1 pharmacokinetics, safety, and tolerability. The study was conducted in two groups.
Group 1 evaluated multiple dose cohorts administered Compound 1 in a single ascending dose (SAD) manner to establish a maximum tolerated dose (MTD) using the doses described in Table 10.
as §2, §3

[8] = Compound 1 (1.5 mg/kg) IV alone
[9] = Plasma concentration of Compound 1, Mean
[10] = Group 2: 40 mg Compound 1, 4 hours after 8 mg fesoterodine fumarate tablet or placebo tablet

Cc1noc([C@@]23CNC[C@@H]2C3)n1 [Compound 1, 1-(3-methyl-[1,2,4]oxadiazol-5-yl)-(1R,5R)-3-aza-bicyclo[3.1.0]hexane]
Salivation (mg) (mean value), 10 min [1, 8]: 414.44 mg
Salivation (mg) (mean value), 20 min [1, 8]: 126.95 mg
Salivation (mg) (mean value), 30 min [1, 8]: 59.21 mg
Salivation (mg) (mean value), 40 min [1, 8]: 61.22 mg
Salivation (mg) (mean value), 50 min [1, 8]: 24.79 mg
Salivation (mg) (mean value), 60 min [1, 8]: 22.15 mg
Salivation (mg) (mean value), Total [1, 8]: 708.76 mg
effect on salivation compared to 0.9% saline vehicle control ([1]; Compound 1 IV alone): significant effect in increase in salivation
AUC(0-inf) (in vivo; 0.3 mg/kg): 212 ng·h/mL
AUC(0-t) (in vivo; 0.3 mg/kg): 208 ng·h/mL
Cmax (in vivo; 0.3 mg/kg): 216 ng/mL
Tmax (in vivo; 0.3 mg/kg): 0.417 h
half-life (in vivo; 0.3 mg/kg): 2.82 h
AUC(0-inf) (in vivo; 1 mg/kg): 988 ng·h/mL
AUC(0-t) (in vivo; 1 mg/kg): 982 ng·h/mL
Cmax (in vivo; 1 mg/kg): 686 ng/mL
Tmax (in vivo; 1 mg/kg): 1 h
half-life (in vivo; 1 mg/kg): 2.28 h
Plasma concentration of Compound 1, Mean ([2]; 1 h): 387 ng/mL
Plasma concentration of Compound 1, Mean ([2]; 2 h): 470.6 ng/mL
Plasma concentration of Compound 1, Mean ([2]; 4 h): 99.48 ng/mL
Plasma concentration of Compound 1, Mean ([2]; 8 h): 17.098 ng/mL
concentration at 1 h [2, 9]: 378 ng/mL
concentration at 2 h [2, 9]: 288 ng/mL
concentration at 4 h [2, 9]: 98.6 ng/mL
concentration at 8 h [2, 9]: 14.7 ng/mL
Vss as fold of total body water (0.7 L/kg) ([3]; male, Sprague Dawley): approximately 2.4 fold
plasma clearance as % of the normal liver blood flow in rats (55 mL/min/kg) ([3]; male, Sprague Dawley): approximately 50%
AUC(0-t) ([3]; male, Sprague Dawley, AUClast of Compound 1): 917 ng·h/mL
C0 ([3]; male, Sprague Dawley, C0 of Compound 1): 1520 ng/mL
clearance ([3]; male, Sprague Dawley, CL of Compound 1): 27.2 mL/min/kg
half-life ([3]; male, Sprague Dawley, T1/2 of Compound 1): 0.83 h
Vd ([3]; male, Sprague Dawley, VSS of Compound 1): 1.71 L/kg
PK parameters of Compound 1, single-agent vs co-administration with fesoterodine [3]: comparable
concentration at 1 h [4]: 608 ng/mL
effect on hyperdopaminergic-mediated motor behavior ([5]; 0.3 and 1 mg/kg IP, d-amphetamine-treated mice): reverses hyperdopaminergic-mediated motor behavior in a dose-dependent manner
average (mean) centimeters traveled over 30 minutes ([5]; Compound 1 0.3 mg/kg IP co-administered with d-amphetamine 3 mg/kg IP, p<0.5): 5141 cm
average (mean) centimeters traveled over 30 minutes ([5]; Compound 1 1.0 mg/kg IP co-administered with d-amphetamine 3 mg/kg IP, p <0.001): 2008 cm
change in salivation with dose (salivation): increase in salivation was observed with increasing dose
Clinical Observation ([6]; day 1): For D1005, ptyalism was found 1 hr 20 min after dosing on day 1; also recorded: For D1001, soft feces were found 1 hr 45 min after dosing on day 1; also recorded: For D1005, about 4 mL white foamy mucoid vomitus was found 40 min; also recorded: For D1005, soft feces was found 1 hr after dosing on day 1; also recorded: For D1005, about 8 mL yellow foamy mucoid vomitus was found 1 hr
Clinical Observation ([6]; day 3): For D1005, 20 mL chyme was found 45 min after dosing on day 3; also recorded: For D1005, soft feces was found 80 min after dosing on day 3; also recorded: For D1005, 20 mL liquid feces was found 3.5 hr after dosing on day 3; also recorded: For D1001, ptyalism was found 2 hr after dosing on day 3. 8 hr recover; also recorded: For D1001, 20 mL chyme and ptyalism were found 3.5 hr after dosing; also recorded: For D1002, 10 mL chyme was found 55 min after dosing on day 3; also recorded: For D1002, 10 mL liquid feces and ptyalism were found 80 min after; also recorded: For D1002, ptyalism was found 2 hr after dosing on day 3. 8 hr recover; also recorded: For D1003, ptyalism was found 2 hr after dosing on day 3. 8 hr recover; also recorded: For D1003, 10 mL chyme, 5 mL liquid feces and ptyalism were found; also recorded: For D1003, 10 mL liquid feces and ptyalism were found 4 hr after; also recorded: For D1004, 15 mL chyme and soft feces were found 55 min after dosing; also recorded: For D1004, 2 mL liquid feces and ptyalism were found 80 min after; also recorded: For D1004, 20 mL chyme was found 90 min after dosing on day 3; also recorded: For D1004, ptyalism was found 2 hr after dosing on day 3. 8 hr recover; also recorded: For D1001, 10 mL chyme was found 55 min after dosing on day 3
Clinical Observation ([6]; day 4): For D1005, 15 mL chyme was found 40 min after dosing on day 4; also recorded: For D1005, 10 mL chyme and 10 mL liquid feces were found 2 hr after; also recorded: For D1001, 15 mL chyme was found 2 hr after dosing on day 4; also recorded: For D1001, ptyalism and 15 mL liquid feces were found 3 hr after; also recorded: For D1002, 15 mL chyme and 10 mL liquid feces were found 2 hr after; also recorded: For D1002, ptyalism and 5 mL liquid feces were found 3 hr after dosing; also recorded: For D1003, soft feces was found 3 hr after dosing on day 4; also recorded: For D1004, ptyalism was found 2 hr after dosing on day 4; also recorded: For D1004, 8 mL liquid feces was found 3 hr after dosing on day 4; also recorded: For D1004, soft feces was found 220 min after dosing on day 4
Clinical Observation ([6]; day 5): For D1003, 5 mL chyme was found 2 hr after dosing on day 5.
Clinical Observation ([6]; day 6): For D1005, 15 mL chyme, 30 mL liquid feces and ptyalism were found; also recorded: For D1005, 15 mL chyme was found 2 hr after dosing on day 6; also recorded: For D1001, ptyalism was found 30 min after dosing on day 6. 8 hr; also recorded: For D1001, ptyalism and soft feces were found 1 hr after dosing on day 6; also recorded: For D1002, ptyalism was found 30 min after dosing on day 6. 8 hr; also recorded: For D1002, 10mL liquid feces and ptyalism were found 1 hr after dosing; also recorded: For D1002, 20 mL chyme, 10 mL liquid feces and ptyalism were found; also recorded: For D1003, ptyalism was found 30 min after dosing on day 6. 8 hr; also recorded: For D1003, 30 mL liquid feces, ptyalism and tremor were found 2 hr; also recorded: For D1003, 10 mL chyme was found 3 hr after dosing on day 6; also recorded: For D1004, 10 mL liquid feces and ptyalism were found 1 hr after; also recorded: For D1004, 5 mL chyme was found 3 hr after dosing on day 6
Clinical Observation ([6]; day 7): For D1005, about 8 mL liquid feces was found 2 hr after dosing on day 7; also recorded: For D1001, ptyalism was found 1 hr after dosing on day 7. 4 hr recover; also recorded: For D1001, miosis was found 1 hr after dosing on day 7. 8 hr recover; also recorded: For D1001, about 5 mL liquid feces and about 3 mL yellow liquid; also recorded: For D1002, ptyalism was found 1 hr after dosing on day 7. 4 hr recover; also recorded: For D1003, ptyalism was found 1 hr after dosing on day 7. 4hr recover; also recorded: For D1003, about 10 mL liquid feces was found 2 hr after dosing on day 7; also recorded: For D1004, ptyalism was found 1 hr after dosing on day 7. 4 hr recover; also recorded: For D1004, about 3 mL yellow liquid vomitus was found 1 hr after
subjects who reported TEAEs ([7]; Group 1, 1 mg, placebo 50.0%): ~33.3%
subjects who reported TEAEs ([7]; Group 1, 3 mg, placebo 50.0%): About 50.0%
subjects who reported TEAEs ([7]; Group 1, 10 mg, placebo 50.0%): About 50.0%
subjects who reported TEAEs ([7]; Group 1, 20 mg, placebo 50.0%): About 50.0%
subjects who reported TEAEs ([7]; Group 1, 40 mg, placebo 50.0%): ~83.3%
subjects who reported TEAEs ([7]; Group 1, 60 mg, placebo 50.0%): ~100%
deaths, serious TEAEs, discontinuations ([7]; Group 1, 1-60 mg single oral dose): no deaths or serious TEAEs reported, and no subjects discontinued the study due to a TEAE
total treatment-emergent adverse events (TEAEs) ([7]; Group 1, 36 subjects who received any dose of compound 1 (1-60 mg single oral)): 95
subjects with TEAEs (number of the 36 subjects) ([7]; Group 1, any dose of compound 1): 22
subjects with TEAEs ([7]; Group 1, any dose of compound 1, of the 36 subjects): 61.6%
day of onset of TEAEs (Day 1 = day of dosing) [7, 10]: 1 days
deaths, serious or severe TEAEs [7, 10]: no deaths, serious or severe TEAEs reported
most frequent TEAEs observed [7, 10]: salivary hypersecretion and dizziness
number of TEAEs reported [7, 10]: 9
subjects who reported TEAEs [7, 10]: 100.0%
MTD of Compound 1 when administered alone ([7]; single oral dose, healthy subjects): 40 mg
safety and tolerability ([7]; single oral doses ranging from 1 mg to 40 mg, healthy subjects): generally safe and well tolerated
